Article PMC6446940 (ChemMedChem, 2018)
Where two headings read alike, the source gives them in different places.

What was measured:
[1] = system: HIV-1 Env pseudovirus PVO, clone 4; experiment: Single-cycle assay TZM-bl, Env pseudovirus panel
[2] = system: HIV-1 Env pseudovirus Q259ENV.W6; experiment: Single-cycle assay TZM-bl, Env pseudovirus panel
[3] = system: HIV-1 Env pseudovirus CAP210.2.00.E8; experiment: Single-cycle assay TZM-bl, Env pseudovirus panel
[4] = system: HIV-1 Env pseudovirus REJO4541, clone 67; experiment: Single-cycle assay TZM-bl, Env pseudovirus panel
[5] = system: HIV-1 panel of Paired Infant (B) and Maternal (M) Env Molecular Clones; experiment: Single-cycle assay, means over Paired Infant and Maternal Env clones
[6] = system: HIV-1 Env pseudovirus MK184.W0M.ENV.E4; experiment: Single-cycle assay, Paired Infant and Maternal Env clones
[7] = system: HIV-1 Env pseudovirus WEAUd15.410.5017; experiment: Single-cycle assay TZM-bl, Env pseudovirus panel
[8] = system: HIV-1 Env pseudovirus 9021_14.B2.4571; experiment: Single-cycle assay TZM-bl, Env pseudovirus panel
Cytotoxicity = type: cell-based; conditions: human, U87-CD4-CCR5 cells
[9] = system: HIV-1 Env pseudovirus QA790.204I.ENV.E2; experiment: Single-cycle assay TZM-bl, Env pseudovirus panel
[10] = system: HIV-1 Env pseudovirus HIV-25925-2, clone 22; experiment: Single-cycle assay TZM-bl, Env pseudovirus panel
[11] = system: HIV-1 Env pseudovirus QD435.100M.ENV.B5; experiment: Single-cycle assay TZM-bl, Env pseudovirus panel
[12] = system: HIV-1 Env pseudovirus QB726.70M.ENV.C4; experiment: Single-cycle assay TZM-bl, Env pseudovirus panel
[13] = system: HIV-1 Env pseudovirus BG505-T332N; experiment: Single-cycle assay TZM-bl, Env pseudovirus panel
[14] = system: HIV-1 Env pseudovirus QA013.70I.ENV.H1; experiment: Single-cycle assay TZM-bl, Env pseudovirus panel
[15] = system: HIV-1 Env pseudovirus QA790.204I.ENV.C8; experiment: Single-cycle assay TZM-bl, Env pseudovirus panel
[16] = system: HIV-1 Env pseudovirus HIV-16936-2, clone 21; experiment: Single-cycle assay TZM-bl, Env pseudovirus panel
[17] = system: HIV-1 Env pseudovirus CRF02_AG, clone 257; experiment: Single-cycle assay TZM-bl, Env pseudovirus panel
[18] = system: control pseudovirus VSV-G; experiment: microbe, parasite or virus in culture; type: cell-based
[19] = system: HIV-1 Env pseudovirus HIV-25711-2, clone 4; experiment: Single-cycle assay TZM-bl, Env pseudovirus panel
[20] = system: HIV-1 Env pseudovirus ZM109F.PB4; experiment: Single-cycle assay TZM-bl, Env pseudovirus panel
[21] = system: HIV-1 Env pseudovirus BK184.W6M.ENV.D2; experiment: Single-cycle assay, Paired Infant and Maternal Env clones
[22] = system: HIV-1 Env pseudovirus QB099.391M.ENV.C8; experiment: Single-cycle assay TZM-bl, Env pseudovirus panel
[23] = system: HIV-1 Env pseudovirus BL274.W6M.ENV.A3; experiment: Single-cycle assay, Paired Infant and Maternal Env clones
[24] = system: HIV-1 Env pseudovirus QF495.23M.ENV.A3; experiment: Single-cycle assay TZM-bl, Env pseudovirus panel
[25] = system: HIV-1 Env pseudovirus Du422, clone 1; experiment: Single-cycle assay TZM-bl, Env pseudovirus panel
[26] = system: HIV-1 Env pseudovirus CRF02_AG, clone 251; experiment: Single-cycle assay TZM-bl, Env pseudovirus panel
[27] = system: HIV-1 Env pseudovirus B1206.W6P.ENV.A1A; experiment: Single-cycle assay, Paired Infant and Maternal Env clones
[28] = system: HIV-1 Env pseudovirus BG505.W6M.ENV.C2; experiment: as above
[29] = system: HIV-1 Env pseudovirus QA790.204I.ENV.A4; experiment: Single-cycle assay TZM-bl, Env pseudovirus panel
[30] = system: HIV-1 Env pseudovirus THRO4156, clone 18; experiment: Single-cycle assay TZM-bl, Env pseudovirus panel
[31] = system: HIV-1 Env pseudovirus HIV-00836-2, clone 5; experiment: Single-cycle assay TZM-bl, Env pseudovirus panel
[32] = system: HIV-1 Env pseudovirus CRF02_AG, clone 33; experiment: Single-cycle assay TZM-bl, Env pseudovirus panel
[33] = target: HIV-1 Reverse Transcriptase (RT) (Human immunodeficiency virus type 1 group M subtype B, UniProt P04585); experiment: biochemical; type: biochemical; conditions: HIV-1 Reverse Transcriptase; mean ± SD, n=3

CNCC(NC(=O)c1ccc(-c2ccc3c(c2)OCO3)[nH]1)c1nc(CO)cs1 (centres unmarked) [NBD-14159, 5-(benzo[d][1,3]dioxol-5-yl)-N-(1-(4-(hydroxymethyl)thiazol-2-yl)-2-(methylamino)ethyl)-1H-pyrrole-2-carboxamide]
IC50 ([1]; TZM-bl): 4.3 ± 0.7 µM
IC50 ([2]; TZM-bl): 1.3 ± 0.2 µM
IC50 ([3]; TZM-bl): 3.5 ± 0.2 µM
IC50 [4]: 3.1 ± 0.4 µM
IC50 ([5]; Human immunodeficiency virus 1, read-out: IC50 Mean ± SEM: Infant (B)): 4e-06 ± 3e-07 M
IC50 ([5]; Human immunodeficiency virus 1, read-out: IC50 Mean ± SEM: Mother (M)): 3.8e-06 ± 5e-07 M
IC50 ([5]; Human immunodeficiency virus 1, read-out: IC50 Mean ± SEM: Overall (n=10)): 3.9e-06 ± 3e-07 M
IC50 [6]: 2.6 ± 0.1 µM
IC50 ([7]; TZM-bl): 3.3 ± 0.2 µM
IC50 ([8]; TZM-bl): 3.7 ± 0.3 µM
CC50 at 3 days (Cytotoxicity): > 100 µM
IC50 ([9]; TZM-bl): 3.2 ± 0.2 µM
IC50 [10]: 4.2 ± 0.5 µM
IC50 ([11]; TZM-bl): 3.3 ± 0.2 µM
IC50 ([12]; TZM-bl): 2.7 ± 0.2 µM
IC50 ([13]; TZM-bl): 3.3 ± 0.2 µM
IC50 ([14]; TZM-bl): 4.3 ± 0.7 µM
IC50 ([15]; TZM-bl): 2.1 ± 0.1 µM
IC50 ([16]; TZM-bl): 5.3 ± 0.2 µM
IC50 ([17]; TZM-bl): 4.8 ± 0.2 µM
IC50 ([18]; Pseudovirus, U87/CD4/CCR5): 41.3 ± 3.4 µM
IC50 ([19]; TZM-bl): 5.8 ± 0.3 µM
IC50 ([20]; TZM-bl): 3.3 ± 0.1 µM
IC50 [21]: 4.2 ± 0.1 µM
IC50 ([22]; TZM-bl): 5 ± 0.1 µM
IC50 [23]: 4.2 ± 0.5 µM
IC50 ([24]; TZM-bl): 3.7 ± 0.1 µM
IC50 ([25]; TZM-bl): 3.1 ± 0.3 µM
IC50 ([26]; TZM-bl): 3.5 ± 0.1 µM
IC50 [27]: 4 ± 0.3 µM
IC50 [28]: 4.7 ± 0.5 µM
IC50 ([29]; TZM-bl): 4 ± 0.4 µM
IC50 [30]: 2.7 ± 0.2 µM
IC50 ([31]; TZM-bl): 4.9 ± 0.3 µM
IC50 ([32]; TZM-bl): 2.7 ± 0.2 µM

Cc1nc([C@@H](CN)NC(=O)c2ccc(-c3ccc(F)c(F)c3)[nH]2)sc1CO (single isomer, unassigned) [NBD-14113, reference compound]
IC50 ([1]; subtype B, NIH # 11022, PVO, clone 4, TZM-bl cells): 4 ± 0.3 µM
IC50 ([2]; subtype A, NIH # 11887, Q259ENV.W6, TZM-bl cells): 2.1 ± 0.3 µM
IC50 ([3]; subtype C, NIH # 11317, CAP210.2.00.E8, TZM-bl cells): 3.7 ± 0.1 µM
IC50 ([5]; read-out: IC50 Mean ± SEM: Infant (B), mean over infant clones): 4.3e-06 ± 5e-07 M
IC50 ([5]; read-out: IC50 Mean ± SEM: Mother, mean over maternal clones): 4e-06 ± 4e-07 M
IC50 ([6]; subtype C/D, NIH # 11536-M (maternal), MK184.W0M.ENV.E4): 2.6 ± 0.3 µM
IC50 ([7]; subtype B, NIH # 11578, WEAUd15.410.5017, R5X4-tropic virus, TZM-bl cells): 3.7 ± 0.3 µM
IC50 ([8]; subtype B, NIH # 11572, 9021_14.B2.4571, TZM-bl cells): 3.2 ± 0.2 µM
IC50 ([9]; subtype A1/D, NIH # 11904, QA790.204I.ENV.E2, TZM-bl cells): 3 ± 0.1 µM
IC50 ([11]; subtype D, NIH # 11916, QD435.100M.ENV.B5, TZM-bl cells): 2.2 ± 0.3 µM
IC50 ([12]; subtype A, NIH # 11888, QB726.70M.ENV.C4, TZM-bl cells): 4 ± 0.2 µM
IC50 ([13]; subtype A, BG505-T332N, TZM-bl cells): 3.3 ± 0.2 µM
IC50 ([14]; subtype D, NIH # 11911, QA013.70I.ENV.H1, TZM-bl cells): 3.5 ± 0.1 µM
IC50 ([15]; subtype A1/D, NIH # 11903, QA790.204I.ENV.C8, TZM-bl cells): 4.3 ± 0.1 µM
IC50 ([16]; subtype C, NIH # 11504, HIV-16936-2, clone 21, TZM-bl cells): 5.9 ± 0.2 µM
IC50 ([17]; subtype AG, NIH # 11599, CRF02_AG, clone 257, TZM-bl cells): 4.6 ± 0.5 µM
IC50 [18]: 26.3 ± 1.4 µM
IC50 ([19]; subtype C, NIH # 11506, HIV-25711-2, clone 4, TZM-bl cells): 4.7 ± 0.4 µM
IC50 [33]: 45.9 ± 3.6 µM
IC50 ([20]; subtype C, NIH # 11314, ZM109F.PB4, TZM-bl cells): 1.9 ± 0.1 µM
IC50 ([21]; subtype C/D, NIH # 11522-B (infant), BK184.W6M.ENV.D2): 3.6 ± 0.2 µM
IC50 ([22]; subtype C, NIH # 11909, QB099.391M.ENV.C8, TZM-bl cells): 4 ± 0.3 µM
IC50 ([23]; subtype A, NIH # 11525-B (infant), BL274.W6M.ENV.A3): 5.7 ± 0.3 µM
IC50 ([24]; subtype A, NIH # 11891, QF495.23M.ENV.A3, TZM-bl cells): 4 ± 0.2 µM
IC50 ([25]; subtype C, NIH # 11308, Du422, clone 1, TZM-bl cells): 3 ± 0.1 µM
IC50 ([26]; subtype AG, NIH # 11595, CRF02_AG, clone 251, TZM-bl cells): 3 ± 0.2 µM
IC50 ([28]; subtype A, NIH # 11518-B (infant), BG505.W6M.ENV.C2): 4.4 ± 0.3 µM
IC50 ([29]; subtype A1/D, NIH # 11901, QA790.204I.ENV.A4, TZM-bl cells): 5.5 ± 0.3 µM
IC50 ([31]; subtype C, NIH # 11500, HIV-00836-2, clone 5, TZM-bl cells): 4.3 ± 0.4 µM
IC50 ([32]; subtype AG, NIH # 11607, CRF02_AG, clone 33, TZM-bl cells): 3.5 ± 0.2 µM
